Values joined by “and” are separate entries in the source; they are usually repeats but may differ in a detail not shown here. Equal values may be shown once.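 Where inhibition never reached the appropriate level, the endpoint shown equals the highest concentration tested. Otherwise, values were interpolated linearly from a five-concentration, 48-hour dose response in 96-well plates. GI50 = concentration required for 50% inhibition of growth. TGI is the concentration that stops growth completely.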
Assays:
Assay in all cases: growth of human tumour cells (NCI), 48 h
SF-295 CNS = test system: SF-295 CNS
MOLT-4 leukemia = test system: MOLT-4 leukemia
U251 CNS = test system: U251 CNS
HOP-92 NSCLC = test system: HOP-92 NSCLC
HT29 colon = test system: HT29 colon
HCT-15 colon = test system: HCT-15 colon
SW-620 colon = test system: SW-620 colon
A498 renal = test system: A498 renal
SK-MEL-2 melanoma = test system: SK-MEL-2 melanoma
OVCAR-3 ovarian = test system: OVCAR-3 ovarian

| SMILES | TGI (SF-295 CNS) | TGI (MOLT-4 leukemia) | TGI (U251 CNS) | TGI (HOP-92 NSCLC) | TGI (HT29 colon) | TGI (HCT-15 colon) | TGI (SW-620 colon) | TGI (A498 renal) | TGI (SK-MEL-2 melanoma) | TGI (OVCAR-3 ovarian) | GI50 (SF-295 CNS) [µM] | GI50 (MOLT-4 leukemia) [µM] | GI50 (U251 CNS) [µM] | GI50 (HOP-92 NSCLC) [µM] | GI50 (HT29 colon) [µM] | GI50 (HCT-15 colon) [µM] | GI50 (SW-620 colon) [µM] | GI50 (A498 renal) [µM] | GI50 (SK-MEL-2 melanoma) [µM] | GI50 (OVCAR-3 ovarian) [µM] |
| --- | --- | --- | --- | --- | --- | --- | --- | --- | --- | --- | --- | --- | --- | --- | --- | --- | --- | --- | --- | --- |
| Cc1ccc(-c2c(N)nc(NC#N)nc2CCC(=O)Nc2ccccc2[N+](=O)[O-])cc1 | > 100 µM | > 100 µM | > 100 µM | > 100 µM | > 100 µM | > 100 µM | > 100 µM | > 100 µM | > 100 µM | > 100 µM |  |  |  |  |  |  |  |  |  |  |
| Cc1ccn2c3c(c(C(=O)O)c2c1)C(=O)c1ccccc1C3=O | 8.68 µM | > 100 µM | > 100 µM | > 100 µM | > 100 µM | > 100 µM | > 100 µM | 40.5 µM | > 100 µM | > 70.3 µM | 2.25 | > 100 | 15.7 | > 100 | 4.61 | 5.14 | 15.1 | 5.01 | > 100 | 2.9 |
| Cc1cc2nc3c4cc(Cl)ccc4n(CCN(C)C)c3nc2cc1C | 3.79 µM | 3.44 µM | 3.14 µM | 3.61 µM | 3.66 µM | 4.7 µM | 2.25 µM | 2.63 µM | 4.45 µM | 4.76 µM | 1.91 | 0.586 | 1.43 | 0.498 | 1.13 | 0.821 | 0.821 | 1.29 | 2.08 | 1.92 |
| CC(C)(C)OC(=O)n1cc(CNC(=S)Nc2ccccc2)c2ccccc21 | 23.4 µM | > 100 µM | 16 µM | 25.7 µM | > 100 µM | 22.9 µM | 26.2 µM | 31.2 µM | > 100 µM | 27.7 µM | 6.04 | 3.88 | 4.18 | 8.94 | 22.3 | 10.9 | 13.1 | 15.1 | 36.3 | 11.7 |
| Clc1ccccc1C(c1ccccc1)(c1ccccc1)n1ccnc1 | 9.67 µM and 23.7 µM | 6.87 µM and 57.7 µM | 11.8 µM and 49.8 µM | 4.3 µM and 37.9 µM | 7.1 µM and 28 µM | 12.5 µM and 22.7 µM | 13.3 µM and 40.1 µM | 6.02 µM and 43.8 µM | 7.22 µM and 29.3 µM | 4.41 µM and 17.6 µM | 1.94 | 1.96 | 2.48 | 1.57 | 2.24 | 2.58 | 3.28 | 2.15 | 2.66 | 1.78 |
| C=CC(=O)N[C@H]1C=C(C)c2c(-c3cnc4ccccc4c3)c3c(N)ncnc3n2C1 | 68 µM | > 100 µM | 68.2 µM | 15.7 µM | > 100 µM | > 80.3 µM | > 95.5 µM | 3.99 µM | 35.2 µM | 52.2 µM | 22.9 | 24.5 | 21.4 | 2.46 | 11 | 23.1 | 23.8 | 0.351 | 13.4 | 8.27 |
| Oc1ccccc1/C=N/Nc1ccc2ccccc2n1 | > 100 µM | > 100 µM | 31.5 µM | 42.5 µM | > 100 µM | > 100 µM | > 100 µM | > 100 µM | > 100 µM | 13.8 µM | 4.44 | 2.6 | 4.23 | 4.47 | 9.46 | 0.838 | 4.64 | 7.03 | 30 | 2.82 |
| COc1c(C2CC(=O)Nc3c2cnn3Cc2ccco2)cc2c(c1OC)OCO2 (centres undefined) | > 30.5 µM | > 100 µM | > 25.8 µM | 98 µM | > 100 µM | > 100 µM | > 100 µM | 0.932 µM | > 100 µM | 1.4 µM | 0.573 | 0.615 | 0.499 | 0.424 | 0.372 | 0.431 | 0.385 | 0.21 | 0.421 | 0.325 |
| C#Cc1cnc(=O)n(C2CC(O)C(CO)O2)c1 (centres undefined) | > 100 µM | > 100 µM | > 100 µM | > 43.2 µM |  | > 100 µM | > 100 µM | > 100 µM | > 100 µM | > 100 µM | > 100 | 98.9 | > 100 |  |  | > 100 | > 100 | > 100 | > 100 | 97 |
| C1COCCN1.C1COCCN1.N.N.[Cl-].[Pt+2] | > 100 µM |  | > 100 µM |  |  | > 100 µM | > 100 µM |  | > 100 µM | > 100 µM | > 100 |  | > 100 |  |  | > 100 | > 100 |  | > 100 | > 100 |
| COc1ccc(-c2nn(-c3cccc(Cl)c3)cc2C2CC(c3ccccc3)=NN2C(C)=O)cc1 (centres undefined) | 40.6 µM | > 100 µM | 14.9 µM |  | > 100 µM | > 100 µM | > 100 µM | 50.4 µM | 22.6 µM | 45.1 µM | 5.96 | > 100 | 3.15 |  | 5.49 | > 100 | > 100 | 3.33 | 4.97 | 5.42 |
| CSC1=NC=CCN1C | > 100 µM | > 100 µM | > 100 µM |  | > 100 µM | > 100 µM | > 100 µM | > 100 µM | > 100 µM | > 100 µM |  |  |  |  |  |  |  |  |  |  |
| COC(=O)C1OC(O[C@H]2CCC3(C)C(CCC4(C)C3CC=C3C5CC(C)(C)CCC5(C(=O)O)CC[C@]34C)C2(C)C)C(O)C(OC2OC(CO)C(O)C(O)C2O)C1O (some centres undefined) | > 33.3 µM | 13.4 µM | 10.9 µM | 14.5 µM | > 33.3 µM | 13.2 µM | 16.7 µM |  | > 33.3 µM | > 33.3 µM | 11.8 | 2.17 | 6.08 | 7.12 | 12.4 | 6.57 | 7.28 |  | 11.9 | 13.9 |
